“Also recorded” adds a separate entry of the source.

For assay [1] the following is noted: as alternative to corticosteroid and/or immunosuppressive drugs; cited from earlier work.
Assay [2] concerns TGF-β signaling. The following applies: low concentrations of paclitaxel; nude mouse model of scleroderma; cited from earlier work.
Assay [3] concerns OHP content of the liver (ANIT-induced liver fibrosis). The assay can be described thus: ANIT-induced liver fibrosis: absolute amount of OHP in liver by chloramine-t assay. In kind it is in vivo, mice. As for the experimental part: Mice were fed a diet adulterated with 0.05% (w/w) ANIT or a control diet for two weeks in order to induce a fibrotic response in the liver. The mice were labeled with 8% ^2H2O (Spectra Stable Isotopes, Columbia, Md.) beginning on the day that ANIT administration began. […] In addition to the GC/MS analysis, the absolute amount of OHP in the samples was determined by a chloramine-t assay as described above for the bleomycin studies. Statistics: An analysis of variance followed by a Dunnett's test for comparison with ANIT/vehicle control was used to analyze the data (SigmaStat). Data were considered significant at p<0.05.

The subject of assay [4] is total collagen (OHP) content of the lung (bleomycin-induced lung fibrosis). The assay can be described thus: Bleomycin-induced lung fibrosis: total OHP content of lung by chloramine-t assay. In kind it is in vivo, mice. The following applies: noscapine for 2 weeks after bleomycin 1.5 U/kg. As for the experimental part: Protocol: Bleomycin (Sigma-Aldrich) was dissolved in sterile saline at a concentration of 1.05 U/ml. 30 μl of the bleomycin solution or the same volume of vehicle (sham control) was installed into the trachea of female C57BI/6 mice by the trans-oral route to yield a dose of 1.5 U/kg of bleomycin. […] Label (8% ^2H2O in drinking water) and drug administration continued for the 2 week study duration. […] In addition to the GC/MS analysis, the absolute amount of collagen in the samples was determined by a chloramine-t assay of total OHP, a well established colorimetric method for determining OHP content. Samples of the original homogenate (400 μl) were hydrolyzed (HCl, 500 μl), dried, re-suspended in 1 ml of assay buffer, and incubated overnight. 150 μl of the suspension was pipetted into wells of a 96 well plate. 75 μl of chloramine-t was added to the well and the plate was incubated at room temperature for 20 min. Dimethylaminobenzaldehyde (75 μl) was then added to each well. The plate was incubated at 60° C. for 15 min before being read on a microquant (Bio-Tek Instruments, Inc. MQX200) at 540 nm. OHP standards were prepared and analyzed with the samples. Results were analyzed using GraphPad Prism to interpolate values from the standard curve. […]

The test system of assay [5] is collagen synthesis in the liver (ANIT-induced liver fibrosis). The assay is described as follows: ANIT-induced liver fibrosis: fractional synthesis of collagen (2H2O labeling, GC/MS of OHP). The assay is classed as in vivo, mice. Particulars: for amount of newly synthesized collagen in the liver: separate study. The source says: Alpha-Naphthylisothiocyanate (ANIT) is a hepatotoxicant that damages biliary cells and hepatocytes. Prolonged exposure to ANIT induces bile duct hyperplasia and biliary fibrosis, as well as liver injury. ANIT is conjugated with glutathione in hepatocytes and secreted into the bile (reviewed in Xu, 2004). However, the ANIT-glutathione complexes are unstable and rapidly dissociate in the bile causing the hepatocytes to reuptake the drug. Recycling can continue for many rounds, delaying ANIT elimination and depleting glutathione. In addition to its direct cytotoxic effects, ANIT also induces a hepatic inflammatory response that contributes to the tissue injury. Chronic administration of ANIT to rodents results in a significant increase in liver collagen and is used as an animal model of liver fibrosis (Xu et al, 2004). […] Inhibition or reversal of the fibrotic response is determined by a reduction in collagen synthesis when compared with the ANIT-vehicle control.
Subjects: Female C57BU6 mice, 10 weeks of age at the start of the study were used. The animals were housed in groups of 5, under standard laboratory conditions, with food and water available ad lib. Study groups are as stated in table 2 (po signifies oral gavage).
Mice were fed a diet adulterated with 0.05% (w/w) ANIT or a control diet for two weeks in order to induce a fibrotic response in the liver. The mice were labeled with 8% ^2H2O (Spectra Stable Isotopes, Columbia, Md.) beginning on the day that ANIT administration began.
On the day following the last drug administration, mice were placed under heavy anesthesia, and the liver was perfused and removed. Liver tissue was homogenized with a MiniBeadbeater 96™ bead mill (Biospec, Bartlesville, Okla.) followed by acetone precipitation and vacuum drying. Proteins were hydrolyzed in 6 N HCl (110° C., 16 hours), dried under vacuum and suspended in 1 mL 50% acetonitrile, 50 mM K2HPO4, pH 11. Pentafluorobenzyl bromide was added before the sealed mixture was incubated (100° C.; 1 hour) and extracted into ethyl acetate. The top layer was removed and dried by addition of solid Na2SO4 followed by vacuum centrifugation. Samples were incubated with 50 μL methyl imidazole and 100 μL MTBSTFA, (100° C. for 30 min). The derivative was extracted in water/petroleum ether and dried with Na2SO4. Selected ion monitoring was at mass-to-charge ratios of 445, 446, and 447 for the OH-proline derivatives. Mole % excess M1 enrichment (EM1) and fractional synthesis (f) are calculated.
Statistics: An analysis of variance followed by a Dunnett's test for comparison with ANIT/vehicle control was used to analyze the data (SigmaStat). Data were considered significant at p<0.05.

Assay [6] has as its system liver collagen content (ANIT-induced liver fibrosis). The assay can be described thus: ANIT-induced liver fibrosis: histological collagen content (Masson's Trichrome stain). Particulars: noscapine administered with ANIT, FIG. 10. The assay is classed as in vivo, mice. As for the experimental part: Mice were fed a diet adulterated with 0.05% (w/w) ANIT or a control diet for two weeks in order to induce a fibrotic response in the liver. The mice were labeled with 8% ^2H2O (Spectra Stable Isotopes, Columbia, Md.) beginning on the day that ANIT administration began. […] A small sample (75 to 80 mg) of the liver was excised from the lateral right lobe, immediately fixed in formalin, and sent for histological examination (Premier Laboratory LLC, Longmont Colo., USA). Briefly, paraffin embedded slides were prepared from the formalin-fixed tissue and then treated with Masson's Trichrome stain for collagen distribution. Prepared slides were scanned, photographed, and subsequently analyzed for collagen content using ImageScope software (Aperio Technologies Inc., Vista Ca). Statistics: An analysis of variance followed by a Dunnett's test for comparison with ANIT/vehicle control was used to analyze the data (SigmaStat). Data were considered significant at p<0.05.

In assay [7] the test system is α-SMA positive lung cells (activated myofibroblasts). The assay is described as follows: Bleomycin-induced lung fibrosis: histology of αSMA positive lung cells. In kind it is in vivo, mice. Particulars: relative to vehicle+bleomycin control; 2 weeks after bleomycin; FIG. 4. As for the experimental part:
Protocol: Bleomycin (Sigma-Aldrich) was dissolved in sterile saline at a concentration of 1.05 U/ml. 30 μl of the bleomycin solution or the same volume of vehicle (sham control) was installed into the trachea of female C57BI/6 mice by the trans-oral route to yield a dose of 1.5 U/kg of bleomycin. […] Label (8% ^2H2O in drinking water) and drug administration continued for the 2 week study duration. […] The differentiation of fibroblastic cells into myofibroblasts which express α-smooth muscle actin (α-SMA) is a major process the development of fibrosis. αSMA is a well recognized indicator of activated myofibroblasts. A small sample (5 to 20 mg) of the lung was excised from the center of the left lobe, immediately fixed in formalin, and sent for histological examination (Premier Laboratory LLC, Longmont Colo., USA). Briefly, paraffin embedded slides were prepared from the formalin-fixed tissue and then stained using an antibody for αSMA. Prepared slides were scanned, photographed, and subsequently analyzed for the presence of αSMA positive cells using ImageScope software (Aperio Technologies Inc., Vista Ca). Statistics: An analysis of variance followed by a Dunnett's test for comparison with drug vehicle/bleomycin control was used to analyze the data (SigmaStat). Data were considered significant at p<0.05.

Assay [8] relates to collagen synthesis in the lung (bleomycin-induced lung fibrosis). The assay is described as follows: Bleomycin-induced lung fibrosis: fractional synthesis of collagen (2H2O labeling, GC/MS of OHP). The assay is classed as in vivo, mice. As for the experimental part: Bleomycin administration induces at least a three fold increase in the fractional synthesis of OHP as measured by GC/MS. Inhibition or reversal of the fibrotic response is determined by a reduction in OHP synthesis when compared with the bleomycin-vehicle control.
Animals: Female C57BU6 mice, 10 weeks of age at the start of the study were used. Food and water were available ad lib for the study duration. Study groups are as stated in table 1.
Protocol: Bleomycin (Sigma-Aldrich) was dissolved in sterile saline at a concentration of 1.05 U/ml. 30 μl of the bleomycin solution or the same volume of vehicle (sham control) was installed into the trachea of female C57BI/6 mice by the trans-oral route to yield a dose of 1.5 U/kg of bleomycin. […] Label (8% ^2H2O in drinking water) and drug administration continued for the 2 week study duration.
On the day following the last drug administration, the mice were placed under heavy anesthesia and blood was collected via cardiac puncture. The lung was perfused with isotonic saline, removed and weighed. The lung was homogenized with a MiniBeadbeater-96™ (Biospec, Bartlesville, Okla.) bead mill, and the total volume of homogenate was determined. The homogenate was subjected to acetone precipitation in order to obtain the total tissue protein for OHP assessment. The proteins were hydrolyzed by incubation in HCl, dried under vacuum and then suspended in a solution of 50% acetonitrile, 50 mM K2HPO4 and pentafluorobenzyl bromide before incubation. Derivatives were extracted into ethyl acetate, and the top layer was removed and dried by vacuum centrifugation. […] The derivatized OHP was analyzed by GC/MS, performed in the negative chemical ionization mode. […] Incorporation of ^2H into OHP was calculated as the molar fraction of molecules with one excess mass unit above the natural abundance fraction (EM1). Fractional synthesis (f) of collagen was calculated as the ratio of the EM1 value in protein-bound OHP to the maximal value possible at the body ^2H2O enrichment present. […]

In the case of `COc1cc2c(c(OC)c1OC)-c1ccc(OC)c(=O)cc1[C@@H](NC(C)=O)CC2` [Colchicine, colchicine], the “safety and efficacy in the treatment of IPF” value in assay [1] is given as “safer, but not effective”.
Take `CC(=O)O[C@H]1C(=O)[C@@]2(C)[C@H]([C@H](OC(=O)c3ccccc3)[C@]3(O)C[C@H](OC(=O)[C@H](O)[C@@H](NC(=O)c4ccccc4)c4ccccc4)C(C)=C1C3(C)C)[C@]1(OC(C)=O)CO[C@@H]1C[C@@H]2O` [Paclitaxel, paclitaxel]: in assay [2], the “Smad2 and Smad3 phosphorylation in SSc grafts” value was “markedly suppressed Smad2 and Smad3 phosphorylation”; the “collagen deposition in SSc grafts” value is recorded as “decreased collagen deposition”.
Regarding `COc1ccc2c(c1OC)C(=O)O[C@@H]2[C@H]1c2c(cc3c(c2OC)OCO3)CCN1C` [noscapine], the “total amount of OHP in the whole liver” value in assay [3] (chloramine-t assay, noscapine po with ANIT for 2 weeks, vs ANIT plus vehicle control, FIG. 8) is reported as “significantly reduced the ANIT-induced elevation of OHP content”. The “ANIT-induced elevation of collagen synthesis, absolute (f x [OHP]) in the liver” value in assay [3] (noscapine at 30 and 100 mg/kg po, p<0.05 vs ANIT/vehicle, FIG. 9) is on record as “significantly reduced the ANIT-induced elevation of collagen synthesis”. Besides, in assay [3] (noscapine po with ANIT for 2 weeks, vs ANIT plus vehicle control, FIG. 9), the “amount of newly synthesized collagen in the whole liver (f x [OHP])” value is “significantly reduced”. Further, the “total collagen (OHP) content of the lung” value in assay [4] (chloramine-t assay, FIG. 2) is reported as “blocked by noscapine in a dose related manner”. For the same compound, the “absolute amount of newly synthesized collagen in the lung (f times total OHP content)” value in assay [4] (FIG. 3) is on record as “significantly decreased”. Further, the “ANIT-induced elevation of new OHP (percent labeled OHP, f) in the liver” value in assay [5] (noscapine at 30 and 100 mg/kg po, p<0.05 vs ANIT/vehicle, FIG. 7) is given as “significantly reduced the ANIT-induced elevation of OHP”. In addition, the “percent of newly synthesized collagen in the liver (percent labeled OHP, f)” value in assay [5] (noscapine po (oral gavage) 10, 30, 100 mg/kg with 0.05% ANIT diet for 2 weeks, FIG. 7) is reported as “dose dependently reduced the percent of newly synthesized collagen”. Also, the “amount of newly synthesized collagen in the liver” value in assay [5] (noscapine 300 mg/kg by oral gavage once per day with ANIT, FIG. 12) was “tended to decrease the amount of newly synthesized collagen”; in assay [5] (noscapine 300 mg/kg in the diet (2 g/kg food) with ANIT, FIG. 11), “tended to decrease the amount of newly synthesized collagen”. The “histologically determined collagen content of liver” value in assay [6] is recorded as “significantly decreased ANIT-induced collagen content; also recorded: significant decrease in collagen content”. Moreover, in assay [7], the “number of alpha smooth muscle actin (αSMA) positive cells in lung” value is reported as “significantly reduced the number of myofibroblasts activated by bleomycin; also recorded: significantly decreased the number of alpha smooth muscle actin (αSMA) positive cells”. In addition, the “bleomycin-induced increase of collagen synthesis (fractional synthesis, percent labeled OHP, f)” value in assay [8] (noscapine 300 mg/kg po (oral gavage) for 2 weeks from the day of bleomycin, FIG. 5) is on record as “blocked the bleomycin-induced increase of collagen synthesis”; in assay [8] (noscapine ip (10, 30, 100 mg/kg) for 2 weeks from the day of bleomycin 1.5 U/kg trans-oral, FIG. 1), “blocked the bleomycin-induced increase of collagen synthesis”. The “percent of newly synthesized collagen (% new OHP, f)” value in assay [8] (noscapine in diet (2 g/kg food, approx. 300 mg/kg) for 2 weeks from the day of bleomycin, FIG. 6) is on record as “tended to reduce the % new OH—P, but the effect was not statistically significant; also recorded: tended to reduce the percent of newly synthesized collagen”.

(Values after patent US20110288114A1, “COMPOSITIONS FOR THE TREATMENT OF FIBROTIC DISEASES OR CONDITIONS” (Kinemed, Inc., priority 2008, published 2011).)
